Experimental data reported in patent US5225607A, “Insecticidal ethers” (Imperial Chemical Industries PLC, priority 1985, dated 1993).

How the values were obtained:
Type in all cases: in vivo
Tetranychus urticae = assay: Insecticidal/acaricidal test, Tetranychus urticae (spider mites - adult), contact; conditions: 72 h, French bean leaf, 3 days, read-out: grading of mortality, TU
In short: (§1)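 Acetone solution diluted in water + 0.01% wetting agent; 500/250/100 ppm. Treat pests and/or host plant/food medium. Read mortality/knockdown day 1–3. Grades: A 80–100% (S. exigua 70–100%), B 50–79% (50–69%), C <50%.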

Myzus persicae = assay: Insecticidal test, Myzus persicae (aphids), contact; conditions: 72 h, Chinese Cabbage leaf, 3 days, read-out: grading of mortality, MP
In short: as §1

Nilaparvata lugens = assay: Insecticidal test, Nilaparvata lugens (brown planthopper), contact; conditions: 72 h, Cabbage leaf, 3 days, read-out: grading of mortality, NL
In short: as §1

Musca domestica [1] = assay: Knockdown test, Musca domestica (houseflies - adults); conditions: cotton wool/sugar, 4 hours, read-out: grading of knockdown, MD/KD
In short: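 Adult houseflies were exposed to the compound as aqueous acetone preparations with 0.01% Lissapol NX wetting agent, at 500, 250 or 100 ppm. Knockdown was graded A (80–100%), B (50–79%) or C (<50%).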

Musca domestica [2] = assay: Insecticidal test, Musca domestica (houseflies - adults), contact; conditions: 24 h, cotton wool/sugar, 1 day, read-out: grading of mortality, MD
In short: as §1

Blattella germanica = assay: Insecticidal test, Blattella germanica (cockroach nymphs), residual; conditions: 72 h, plastic pot, 3 days, read-out: grading of mortality, BG
In short: as §1

Heliothis virescens = assay: whole plant or invertebrate; conditions: in Gossypium hirsutum, 72 h, read-out: grading of mortality, HV
In short: as §1

Spodoptera exigua = assay: Insecticidal test, Spodoptera exigua (lesser armyworm), residual; conditions: 72 h, cotton leaf, 3 days, read-out: grading of mortality, SE
Experimental: The activity of the Product was determined using a variety of insect and acarine pests. The Product was used in the form of liquid preparations containing 500, 250 or 100 parts per million (ppm) by weight of the Product. The preparations were made by dissolving the Product in acetone and diluting the solutions with water containing 0.01% by weight of a wetting agent sold under the trade name "LISSAPOL" NX until the liquid preparations contained the required concentratio of the Product. "Lissapol" is a Registered Trade Mark.
The test procedure adopted with regard to each pest was basically the same and comprised supporting a number of the pests on a medium which was usually a host plant or a foodstuff on which the pests feed, and treating either or both the pests and the medium with the preparations. The mortality of the pests was then assessed at periods usually varying from one to three days after the treatment.
The results of the tests are given in Table IV for each of the Products, at the rate in parts per million given in the second column as a grading of mortality designated as A, B or C wherein A indicates 80-100% mortality or knockdown (70-100% in the case of Spodoptera exigua), B indicates 50-79% mortality or knockdown (50-69% in the case of Spodoptera exigua) and C indicates less than 50% mortality or knockdown.
In Table IV the pest organism used is designated by a letter code and the pest species, the support medium or food, and the type and duration of test is given in Table III.

Diabrotica balteata = assay: Insecticidal test, Diabrotica balteata (rootworm larvae), residual; conditions: 72 h, filter paper/maize seed, 3 days, read-out: grading of mortality, DB
In short: as §1

Row | SMILES | mortality at 500 ppm (Tetranychus urticae) | mortality at 500 ppm (Myzus persicae) | mortality at 500 ppm (Nilaparvata lugens) | pest or weed control at 500 ppm (Musca domestica [1]) | mortality at 500 ppm (Musca domestica [2]) | mortality at 500 ppm (Blattella germanica) | mortality at 500 ppm (Heliothis virescens) | mortality at 500 ppm (Spodoptera exigua) | mortality at 500 ppm (Diabrotica balteata) | mortality at 100 ppm (Tetranychus urticae) | mortality at 100 ppm (Myzus persicae) | mortality at 100 ppm (Nilaparvata lugens) | pest or weed control at 100 ppm (Musca domestica [1]) | mortality at 100 ppm (Musca domestica [2]) | mortality at 100 ppm (Blattella germanica) | mortality at 100 ppm (Heliothis virescens) | mortality at 100 ppm (Spodoptera exigua) | mortality at 100 ppm (Diabrotica balteata) | also measured
1 | FC(F)(F)C(Cl)(COCc1cccc(Oc2ccccc2)c1)c1ccc2c(c1)OCO2 (stereo not drawn) [Compound 64, 1,1,1-Trifluoro-2-chloro-2-(3,4-methylenedioxyphenyl)-3-(3-phenoxybenzyloxy)propane] | < 50% | < 50% | < 50% | 50 to 79% | 50 to 79% | < 50% | 80 to 100% | < 50% | < 50% | – | – | – | – | – | – | – | – | – | –
2 | Fc1ccc(COC=C(c2ccc(OC(F)(F)F)cc2)C(F)(F)F)cc1Oc1ccccc1 [Compound 462, 1,1,1-trifluoro-2-(4-trifluoromethoxyphenyl)-3-(3-phenoxy-4-fluorobenzyloxy)prop-2-ene] | – | – | – | – | – | – | – | – | – | < 50% | < 50% | < 50% | 80 to 100% | 80 to 100% | 80 to 100% | 80 to 100% | 70 to 100% | 50 to 79% | –
3 | Cc1ccc(C(O)(COCc2cccc(Oc3ccccc3)c2)C(F)(F)F)cc1 (stereo not drawn) [Compound 120, 1,1,1-Trifluoro-2-(4-methylphenyl)-3-(3-phenoxybenzyloxy)propan-2-ol] | < 50% | < 50% | < 50% | 80 to 100% | < 50% | < 50% | < 50% | < 50% | < 50% | – | – | – | – | – | – | – | – | – | –
4 | CCOc1ccc(C(COCc2cccc(Oc3ccc(Cl)cc3)c2)C(F)(F)F)cc1F (stereo not drawn) [Compound 13, 1,1,1-Trifluoro-2-(3-fluoro-4-ethoxyphenyl)-3-(3-(4-chlorophenoxy)benzyloxy)propane] | – | – | – | – | – | – | – | – | – | < 50% | 80 to 100% | 80 to 100% | 80 to 100% | 80 to 100% | 80 to 100% | 80 to 100% | 70 to 100% | 50 to 79% | –
5 | COCc1ccc(C(COCc2cccc(Oc3ccccc3)c2)C(F)(F)F)cc1 (stereo not drawn) [Compound 24, 1,1,1-Trifluoro-2-(4-methoxymethylphenyl)-3-(3-phenoxybenzyloxy)propane] | – | – | – | – | – | – | – | – | – | < 50% | 80 to 100% | 80 to 100% | 80 to 100% | 80 to 100% | 80 to 100% | 50 to 79% | 70 to 100% | 80 to 100% | –
6 | FC(F)(F)Oc1ccc(C(COCc2cccc(Oc3ccccc3)n2)C(F)(F)F)cc1 (stereo not drawn) [Compound 28, 1,1,1-Trifluoro-2-(4-trifluoromethoxyphenyl)-3-(6-phenoxy-2-pyridylmethyloxy)propane] | – | – | – | – | – | – | – | – | – | < 50% | 80 to 100% | 80 to 100% | 80 to 100% | 80 to 100% | 80 to 100% | 80 to 100% | 70 to 100% | 80 to 100% | –
7 | CCOc1ccc(C(COCc2cccc(Oc3ccc(F)cc3F)c2)C(F)(F)F)cc1 (stereo not drawn) [Compound 10, 1,1,1-Trifluoro-2-(4-ethoxyphenyl)-3-(3-(2,4-difluorophenoxy)benzyloxy)propane] | – | – | – | – | – | – | – | – | – | – | – | – | – | – | – | – | – | – | mortality at 250 ppm (Tetranychus urticae; 250 ppm): < 50%; mortality at 250 ppm (Myzus persicae; 250 ppm): 50 to 79%; mortality at 250 ppm (Nilaparvata lugens; 250 ppm): 80 to 100%; pest or weed control at 250 ppm (Musca domestica [1]; 250 ppm): 80 to 100%; mortality at 250 ppm (Musca domestica [2]; 250 ppm): 80 to 100%; mortality at 250 ppm (Blattella germanica; 250 ppm): 80 to 100%; mortality at 250 ppm (Heliothis virescens): 80 to 100%; mortality at 250 ppm (Spodoptera exigua; 250 ppm): 70 to 100%; mortality at 250 ppm (Diabrotica balteata; 250 ppm): 80 to 100%
8 | CCOc1c(F)cc(C(COCc2cccc(Oc3ccccc3)c2)C(F)(F)F)cc1F (racemic) [Compound 163, (RS)-1,1,1-trifluoro-2-(3,5-difluoro-4-ethoxyphenyl)-3-(3-phenoxybenzyloxy)propane] | 80 to 100% | 80 to 100% | 80 to 100% | 80 to 100% | 80 to 100% | 80 to 100% | 80 to 100% | 70 to 100% | 80 to 100% | – | – | – | – | – | – | – | – | – | –
9 | OC(COCc1ccc(F)c(Oc2ccccc2)c1)(c1ccc(Br)cc1)C(F)(F)F (stereo not drawn) [Compound 127, 1,1,1-Trifluoro-2-(4-bromophenyl)-3-(3-phenoxy-4-fluorobenzyloxy)propan-2-ol] | < 50% | < 50% | < 50% | 80 to 100% | 50 to 79% | < 50% | < 50% | 50 to 69% | 80 to 100% | – | – | – | – | – | – | – | – | – | –
10 | CCOc1ccc(C(COCc2cccc(Nc3ccc(F)cc3)c2)C(F)(F)F)cc1 (stereo not drawn) [Compound 11, 1,1,1-Trifluoro-2-(4-ethoxyphenyl)-3-(3-(4-fluorophenylamino)benzyloxy)propane] | < 50% | < 50% | 80 to 100% | 80 to 100% | 50 to 79% | 50 to 79% | < 50% | 50 to 69% | < 50% | – | – | – | – | – | – | – | – | – | –
11 | Fc1ccc(COCC(c2ccc(OC(F)(F)F)cc2)C(F)(F)F)cc1Oc1ccccc1 (stereo not drawn) [Compound 25, 1,1,1-Trifluoro-2-(4-trifluoromethoxyphenyl)-3-(3-phenoxy-4-fluorobenzyloxy)propane] | – | – | – | – | – | – | – | – | – | 80 to 100% | 80 to 100% | 80 to 100% | 80 to 100% | 80 to 100% | 80 to 100% | 80 to 100% | 70 to 100% | 80 to 100% | –
12 | CCOc1ccc([C@H](CO[C@@H](C#N)c2cccc(Oc3ccccc3)c2)C(F)(F)F)cc1 (racemic) [Compound 252, (2RS)-1,1,1-trifluoro-2-(4-ethoxyphenyl)-3-[(RS)-α-cyano-3-phenoxybenzyloxy]propane] | < 50% | 80 to 100% | 80 to 100% | 80 to 100% | 80 to 100% | 50 to 79% | 80 to 100% | 70 to 100% | 80 to 100% | – | – | – | – | – | – | – | – | – | –
13 | CCOc1ccc(C(COCc2cccc(Cc3ccccc3)c2)C(F)(F)F)cc1 (stereo not drawn) [Compound 12, 1,1,1-Trifluoro-2-(4-ethoxyphenyl)-3-(3-benzylbenzyloxy)propane] | < 50% | 80 to 100% | 80 to 100% | 80 to 100% | 80 to 100% | 80 to 100% | 80 to 100% | 70 to 100% | 80 to 100% | – | – | – | – | – | – | – | – | – | –
